# Assay results as given in patent publication US20190054098A1, “AGENTS AND METHODS USING THEREOF FOR THE PREVENTION AND TREATMENT OF STEM CELLS SENESCENCE” (ECOLE POLYTECHNIQUE FEDERALE DE LAUSANNE (EPFL), priority 2015, published 2019).
# Test system: C2C12 myoblasts
# Assay: Expression of UPRmt markers, prohibitins and cell cycle regulators in C2C12 myoblasts treated with TAP (FIG. 3)
# Type: cell-based
# Settings: 50 μg/ml TAP, different treatment periods (FIG. 3)
# Experimental: Total RNA was extracted from MuSCs by sorting cells directly into TriPure RNA isolation reagent (Roche) or from cultured C2C12 myoblasts using TriPure reagent according to the product manual. Total RNA was transcribed to cDNA using QuantiTect Reverse Transcription Kit (Qiagen). Expression of selected genes was analyzed using the LightCycler480 system (Roche) and LightCycler® 480 SYBR Green I Master reagent (Roche). The acidic ribosomal protein 36b4 gene (ribosomal protein, large, P0, Rplp0) was used as housekeeping reference. C2C12 cells were lysed in a buffer composed of 50 mM Tris, 150 mM KCl, EDTA 1 mM, NP40 1%, nicotinamide 5 mM, sodium butyrate 1 mM and protease inhibitors cocktail (Roche) at pH 7.4. Proteins were separated by SDS-PAGE and transferred onto nitrocellulose membranes. Blocking and antibody incubations were performed in 3% BSA. The following primary antibodies were used: anti-cleavage caspase 3 (Cell Signalling); Anti-γH2AX (Millipore); anti-β-actin (Sigma). All secondary antibodies were from Jackson Immunoresearch. Antibody detection reactions were developed by enhanced chemiluminescence (Advansta, CA, USA) using x-ray films or imaged using the c300 imaging system (Azure Biosystems). The following primary antibodies were used: anti-HSP60 (Enzo Life Science); anti-PHB (Biolegend); anti-PHB2 (Santa Cruz); anti-CKD4 (Novus biologicals); anti-CCND1 (Santa Cruz); anti-CCND3 (Santa Cruz); anti-HSP90 (BD Biosciences); HSP70 (Abcam); anti-MT-CO1 (Biolegend); anti-ATP5A (Biolegend); anti-Grp78 (Abcam); and anti-CLPP (Sigma).
smiles,measurement,setting,value
CS(=O)(=O)c1ccc([C@@H](O)[C@@H](CO)NC(=O)C(Cl)Cl)cc1 [thiamphenicol],UPR^mt induction,,induction
same,cell cycle gene expression / cell cycle regulators,,induced
same,mitonuclear imbalance,,induces
same,prohibitins expression,,induced
same,UPR^mt induction,listed as TAP,induces
same,cell cycle gene expression / cell cycle regulators,listed as TAP,induces
